Consider two compounds from patent publication US20230416247A1, “DRUG-LIKE MOLECULES AND METHODS FOR THE THERAPEUTIC TARGETING OF MICRORNA-21” (University of Washington, priority 2020, published 2023).

The experiment concerns mature miR-21 in HeLa cells. Put plainly: qRT-PCR of mature miR-21 in HeLa cells. Format: cell-based. The procedure: FIGS. 12A and 12B compare levels of mature miR-21 in HeLa cells, as measured by standard qRT-PCR after 5 days of incubation in the presence of palbociclib and compounds −0045 (sm1), −0050 (sm3) and −0052 (sm5) (FIG. 12A); and levels of mature miR-21 in HeLa cells were measured by qRT-PCR after 4 days of incubation in the presence of palbociclib (a control) and compounds −0045 (sm1), −0050 (sm3) and −0052 (sm5) (FIG. 12B), normalized to miR-21 levels in the absence of any compound. […] The two panels represent independent duplicates of the same experiment.
HeLa cells have relatively high levels of miR-21, and this cell line was used to evaluate whether addition of the molecules would decrease levels of mature miR-21, as expected for inhibition of miR-21 processing. […] In contrast, compounds −0045, −50 and −52, induce an approximately 20% percent decline in levels of mature miR-21 (FIGS. 12A and 12B; the comparison of FIG. 12A and FIG. 12B provides an indication in the uncertainty of the data). miR-21 is very long lived, with a lifetime of approximately 5 days. […] Similar results were obtained at higher numbers of cells/plate (200 k vs at the start of the experiment), but the experiment could not be extended beyond 2 days because of the very high cell density reached. The observed trends were nonetheless in agreement with the experiments conducted at lower cell density.
(In qPCR the cycle at which signal appears reflects the starting amount.)

As to `CC(=O)c1c(C)c2cnc(Nc3ccc(N4CCNCC4)cn3)nc2n(C2CCCC2)c1=O` [Palbociclib, reference compound], the “increase in levels of miR-21” value (days 4 and 5 of incubation, 20 k vs 200 k cells/plate, normalized to no compound) was 10-20%.
For `O=c1[nH]c(Nc2ccc(N3CCNCC3)cn2)nc2ccncc12` [−0050], the “decline in levels of mature miR-21” value (days 4 and 5 of incubation, normalized to no compound) was “approximately 20%”. For the same compound, under “worked out from the 20% decrease and miR-21 lifetime of approximately 5 days”, the “reduction of all newly synthesized miR-21” value was “about 60%”.
